# Several values for one entry are separate records, joined by “and”; a condition that tells them apart may be missing. Identical values can stand only once. Entries after “also recorded” stand apart in the source; their conditions may differ.
# Assays:
# CD4 cell counts = assay: HIV control: CD4 cell counts; assay type: in vivo, human
# Description: (§1) HIV control was assessed by plotting longitudinal HIV-1 viral load and CD4 cell counts over time for the per-protocol population. Due to missing data at the pre-treatment cycle 1 […] visit, the CD4 cell counts from the screening visit were used as the baseline comparator. Paired t-tests were done to test the difference between CD4 cell counts at screening, cycle 3 day 22 and cycle 6 day 22. Due to multiple testing, a Bonferroni correction was applied to the significance threshold, calculated as 0.05 ÷ 2 = 0.025.
# (§2) HIV-1 viral load and CD4 counts were measured as per standard of care at hospital sites. To measure the concentration of angiogenesis markers, 8.5 ml blood was collected in BD vacutainer no-additive serum tubes. Samples were kept at room temperature for 30 minutes before centrifugation at 2000 g for 20 minutes at room temperature. Serum samples were then stored at -80 °C prior to analysis. Serum Ang-1, Ang-2 and TIE levels were assessed using commercial ELISAs (Thermo Fisher Scientifc hAng-1 (EHANGPT1), R&D DuoSet Ang-2 (DY623), eBioscience hTIE2 (BMS2042)), according to manufacturer instructions at laboratories at the University of Sheffield.
# HIV-1 = assay: HIV control: HIV-1 viral load; assay type: in vivo, human; details: during the trial, patients receiving selumetinib + ART
# Description: as §1, §2
# [1] = tested on: embryofoetal development and survival; design: method as in SCART protocol 7.3.1; details: at dose levels that do not induce maternal toxicity in mice; ref SCART protocol 7.3.1; cited from earlier work
# [2] = tested on: HIV-associated Kaposi sarcoma; assay: Progression-free survival (Kaplan-Meier); assay type: in vivo, human
# [3] = tested on: patients with HIV-associated KS; assay: Number of selumetinib cycles completed and reasons for discontinuation; assay type: in vivo; details: 6/16 participants
# Excerpt: Reasons for discontinuation were reported in relation to the number of cycles received.
# [4] = Selumetinib and N-desmethyl selumetinib plasma levels (phase I pharmacokinetics); assay type: in vivo; details: for Selumetinib Concentration, 2 Hours Post-Dose / Selumetinib Concentration, 6 Hours Post-Dose / Selumetinib Concentration, Day 1 Pre-Dose: plasma, individual patients; for Selumetinib Concentration, 2 Hours Post-Dose / Selumetinib Concentration, 6 Hours Post-Dose: cycle 1 day 1
# Description: Pharmacokinetic studies will be performed in phase I only . […]
# compartmental analysis will estimate C max, AUC0-24 , clearance and t1/2 from per ipheral blood measurements of both AZD 6244 and its metabolites pr e- dose, and at 2 and 6 hours post dose on day 1 and pre- dos e day 15. Labor atory bioanalysis will be performed by Quotient […]
# • Samples to be collected Cycle 1 Day 1 Pre -treatment, 2 hours and 6 hours post dose (aft er f irst set of tablets) pre- dose Cycle 1 Day 15.
# • 5mls of venous blood should be collected into a K2- ED TA BD vacutainer • Samples should be inverted several times to ensure adequate mix ing. […]
# • 2x 500µ l of plasma should be aliquoted to polypropylene eppendorf tubes.
# • Tubes should be individually labeled with the patient’s study number and sample time- point.
# • Samples should be stored at - 200C.
# • 1 x sample to be transferred on dry ice to Quotient Bioresearch for bioanalysis (all four sample time- points day 1 pre- d ose, and at 2 and 6 hours post d ose and pre- dose day 1 5 can be shipped together – please refer to the Laboratory Manual for c ourier details).
# • 1 x sample to be stored at the study centre as back-up.
# [5] = tested on: patients with HIV-associated KS; assay: Phase I 3 + 3 dose escalation: dose limiting toxicity, MTD/RP2D; assay type: in vivo, human; details: for occurrence of DLT: cycle 1
# Description: The trial used a standard 3 + 3 rule-based dose escalation algorithm with four pre-defined dose levels. […] A dose of 75 mg once daily (od) provided a dose level below the starting dose should de-escalation be required.
# The aim of the phase I component of the trial was to determine the maximum tolerated dose (MTD) of selumetinib in combination with ART, which was defined as the highest dose producing one or fewer DLT in six patients. This dose was defined as the recommended phase II dose (RP2D) for the subsequent phase II component of the trial. Patients recruited to phase I who received the RP2D as their initial dose were included in the phase II population for response analysis. Having completed six cycles of treatment, patients who responded to treatment were permitted to continue selumetinib with ART at the discretion of the treating physician. Patients concurrently received best supportive therapy according to institutional guidelines.
# The occurrence of DLTs was used to evaluate the safety of each dose level and thereby determine the MTD which defined the RP2D.
# • Haematological. • Absolute neutrophil count (ANC) < 1.0 × 10^9/L. • Febrile neutropenia (ANC < 1.0 × 10^9/L, fever ≥ 38 °C). • Platelets < 50 × 10^9/L. • Bleeding thought to be due to thrombocytopenia. • Non-haematological. • Diarrhoea ≥ grade 3 despite optimal loperamide use. • Rash ≥ grade 3. • Any grade 2 toxicity unacceptable to the patient that required a dose reduction. • Missing > 30% of treatment doses for toxicity reasons. • Any other grade 3 or 4 effects thought to be treatment related. • HIV control. • Clinically necessary change in ART drug levels due to detrimental alteration in HIV viral load and/or CD4 cell count.
# Tie-2 = assay: Serum angiogenic marker ELISA; assay type: in vivo, human; details: end of cycles 1, 2, 4 and 6 vs pre-dose cycle 1 day 1; any dose
# Description: (§3) Pharmacodynamic measures were assessed by percentage changes in serum angiogenic markers and correlated with tumour response. The baseline used was that measured at cycle visit 1 day 1 pre-selumetinib treatment. Analysis of longitudinal data was performed using a mixed effects repeated measured regression, with a trend line and 90% CI derived using the fixed effect estimates from the model.
# (§4) Circulating angiogenic biomarkers on cycle 1 day 1 pre-treatment, cycle 2 day 1, cycle 3 day 1, cycle 5 day 1 and end of cycle 6 (all ±1 day except cycle 1 day 1 pre-treatment).
# as §2
# Ang-2 = assay: Serum angiogenic marker ELISA; assay type: in vivo, human
# Description: as §3, §4, §2
# Ang-1 = assay: Serum angiogenic marker ELISA; assay type: in vivo, human; details: end of cycles 1, 2, 4 and 6 vs pre-dose cycle 1 day 1; any dose
# Description: as §3, §4, §2
# Japanese patients, NSCLC = tested on: Japanese patients, NSCLC; design: method as in study D1532C00067; details: selumetinib + Docetaxel, ref study D1532C00067; cited from earlier work
# [6] = tested on: non-small cell lung cancer; design: method as in SCART protocol 7.3.1; details: combination arm; ref SCART protocol 7.3.1; cited from earlier work
# [7] = any dose/safety population, 16 patients
# [8] = per protocol population, 12 patients
smiles,measurement,setting,value
"Cn1cnc2c(F)c(Nc3ccc(Br)cc3Cl)c(C(=O)NOCCO)cc21 [selumetinib, 6-(4-Bromo-2-chloro-phenylamino)-7-fluro-3-methyl-3 H-benzoimidazole-5-carboxylic acid (2-hydroxy-ethoxy)-amide hydrogen sulphate]",mean increase in CD4 cell counts,"CD4 cell counts; cycle 3 day 22 vs screening, per-protocol population, 95% CI: 41.91, 280.63, p = 0.013",161.27 cells/mm^3
same,increase in CD4 cell counts,"CD4 cell counts; cycle 6 day 22 vs pre-treatment, 95% CI: 31.87, 273.47, p = 0.023",152.67 cells/mm^3
same,HIV-1 viral load,HIV-1,remained undetectable
same,reproductive toxicology finding,[1],adverse effects on embryofoetal
same,3-month PFS (90% CI),"[2]; MTD population, 15 patients","66%(42%,82%)"
same,6-month PFS (90% CI),"[2]; MTD population, 15 patients","44% (22%, 64%)"
same,Median PFS in months (90% CI),"[2]; MTD population, 15 patients","5.53 (2.53, 12.80) months"
same,3-month PFS (90% CI),[2]; [7],"62%(39%,78%)"
same,6-month PFS (90% CI),[2]; [7],"41% (21%, 61%)"
same,Median PFS in months (90% CI),[2]; [7],"4.14 (2.53, 12.80) months"
same,3-month PFS (90% CI),[2]; [8],"57%(31%,76%)"
same,Median PFS in months (90% CI),[2]; [8],"3.42 (1.74, -^$) months"
same,participants who discontinued selumetinib due to toxicity before completing six cycles,[3],37.5%
same,plasma levels compared with other selumetinib studies,"[4]; phase I, comparison with refs 19-22",consistent with published reports from other selumetinib studies
same,"Selumetinib Concentration, 2 Hours Post-Dose",[4]; starting dose 50 mg bd,201 ng/mL and 304 ng/mL and 238 ng/mL and 274 ng/mL
same,"Selumetinib Concentration, 6 Hours Post-Dose",[4]; starting dose 50 mg bd,26.5 ng/mL and 48.5 ng/mL and 47.9 ng/mL
same,"Selumetinib Concentration, 2 Hours Post-Dose",[4]; starting dose 75 mg bd,1280 ng/mL and 1250 ng/mL and 361 ng/mL and 247 ng/mL and 504 ng/mL and 1040 ng/mL
same,"Selumetinib Concentration, 6 Hours Post-Dose",[4]; starting dose 75 mg bd,249 ng/mL and 180 ng/mL and 284 ng/mL and 452 ng/mL and 66.1 ng/mL
same,"Selumetinib Concentration, Day 1 Pre-Dose",[4]; starting dose 50 mg bd,BLQ
same,"Selumetinib Concentration, Day 1 Pre-Dose",[4]; starting dose 75 mg bd,BLQ
same,nature of the DLT,"[5]; 75 mg bd, single event, possibly related, resolved with no sequelae","asymptomatic concurrent increase in serum amylase and raised eosinophils, both grade 3"
same,occurrence of DLT,[5]; four patients starting 50 mg bd,None
same,maximum tolerated dose (MTD) / recommended phase II dose (RP2D),"[5]; selumetinib orally in combination with ART, highest dose producing one or fewer DLT in six patients",75 mg bd
same,occurrence of DLT,[5]; six phase I patients starting 75 mg bd,one and 1 out of 6
same,change in circulating level of Tie-2,Tie-2,no significant changes; also recorded: no changes were observed
same,change in circulating level of Ang-2,"Ang-2; end of cycles 1, 2, 4 and 6 vs pre-dose cycle 1 day 1, any dose",no significant changes
same,serum levels of Ang-2 on treatment compared to baseline (trend),Ang-2; on selumetinib treatment,tended to be lower
same,change in circulating level of Ang-1,Ang-1,no significant changes
same,"febrile neutropenia, patients treated","Japanese patients, NSCLC",3 of 8
same,"febrile neutropenia CTCAE grade 3, patients",[6],6/44
same,"febrile neutropenia CTCAE grade 4, patients",[6],2/44

# Source: PMC11921695 (BMC Cancer, 2025)
